Results taken from ChEMBL document CHEMBL3045426, “Synthesis, Antiviral and Antibacterial Activities of Isatin Mannich Bases” (Med Chem Res, 2005).
Converted amounts (≈) assume the structure as drawn.

Tested on: Escherichia coli
Test: Antibacterial activity against Escherichia coli NCTC 10418 infected in po dosed CF mouse compound administered 1 hr prior and 4 hr post infection
Assay type: functional
Conditions: NCTC 10418, po

| SMILES | ED50 [mg/kg] |
| --- | --- |
| O=C(O)c1cn(C2CC2)c2cc(N3CCNCC3)c(F)cc2c1=O [CIPROFLOXACIN] | 1.25 |

Tested on: Vibrio cholerae
Test: Antimicrobial activity against Vibrio cholerae 01 after 18 to 20 hr by agar dilution method
Assay type: functional
Conditions: 1

| SMILES | MIC [µg/mL] |
| --- | --- |
| O=C(O)c1cn(C2CC2)c2cc(N3CCNCC3)c(F)cc2c1=O [CIPROFLOXACIN] | 0.04 (≈ 0.121 µM) |

Tested on: Priestia megaterium
Test: Antimicrobial activity against Bacillus megaterium after 18 to 20 hr by agar dilution method
Assay type: functional
Conditions: not given

| SMILES | MIC [µg/mL] |
| --- | --- |
| O=C(O)c1cn(C2CC2)c2cc(N3CCNCC3)c(F)cc2c1=O [CIPROFLOXACIN] | 0.04 (≈ 0.121 µM) |

Tested on: Enterobacter
Test: Antimicrobial activity against Enterobacter after 18 to 20 hr by agar dilution method
Assay type: functional
Conditions: not given

| SMILES | MIC [µg/mL] |
| --- | --- |
| O=C(O)c1cn(C2CC2)c2cc(N3CCNCC3)c(F)cc2c1=O [CIPROFLOXACIN] | 0.04 (≈ 0.121 µM) |

Tested on: Citrobacter freundii
Test: Antimicrobial activity against Citrobacter freundii after 18 to 20 hr by agar dilution method
Assay type: functional
Conditions: not given

| SMILES | MIC [µg/mL] |
| --- | --- |
| O=C(O)c1cn(C2CC2)c2cc(N3CCNCC3)c(F)cc2c1=O [CIPROFLOXACIN] | 0.04 (≈ 0.121 µM) |

Tested on: Salmonella enteritidis
Test: Antimicrobial activity against Salmonella enterica subsp. enterica serovar Enteritidis after 18 to 20 hr by agar dilution method
Assay type: functional
Conditions: not given

| SMILES | MIC [µg/mL] |
| --- | --- |
| O=C(O)c1cn(C2CC2)c2cc(N3CCNCC3)c(F)cc2c1=O [CIPROFLOXACIN] | 0.04 (≈ 0.121 µM) |

Tested on: Salmonella typhimurium
Test: Antimicrobial activity against Salmonella enterica subsp. enterica serovar Typhimurium after 18 to 20 hr by agar dilution method
Assay type: functional
Conditions: not given

| SMILES | MIC [µg/mL] |
| --- | --- |
| O=C(O)c1cn(C2CC2)c2cc(N3CCNCC3)c(F)cc2c1=O [CIPROFLOXACIN] | 0.04 (≈ 0.121 µM) |

Tested on: Proteus mirabilis
Test: Antimicrobial activity against Proteus mirabilis after 18 to 20 hr by agar dilution method
Assay type: functional
Conditions: not given

| SMILES | MIC [µg/mL] |
| --- | --- |
| O=C(O)c1cn(C2CC2)c2cc(N3CCNCC3)c(F)cc2c1=O [CIPROFLOXACIN] | 0.04 (≈ 0.121 µM) |

Tested on: Proteus vulgaris
Test: Antimicrobial activity against Proteus vulgaris after 18 to 20 hr by agar dilution method
Assay type: functional
Conditions: not given

| SMILES | MIC [µg/mL] |
| --- | --- |
| O=C(O)c1cn(C2CC2)c2cc(N3CCNCC3)c(F)cc2c1=O [CIPROFLOXACIN] | 0.04 (≈ 0.121 µM) |

Tested on: Edwardsiella tarda
Test: Antimicrobial activity against Edwardsiella tarda after 18 to 20 hr by agar dilution method
Assay type: functional
Conditions: not given

| SMILES | MIC [µg/mL] |
| --- | --- |
| O=C(O)c1cn(C2CC2)c2cc(N3CCNCC3)c(F)cc2c1=O [CIPROFLOXACIN] | 0.04 (≈ 0.121 µM) |

Tested on: Salmonella typhi
Test: Antimicrobial activity against Salmonella enterica subsp. enterica serovar Typhi after 18 to 20 hr by agar dilution method
Assay type: functional
Conditions: not given

| SMILES | MIC [µg/mL] |
| --- | --- |
| O=C(O)c1cn(C2CC2)c2cc(N3CCNCC3)c(F)cc2c1=O [CIPROFLOXACIN] | 0.04 (≈ 0.121 µM) |

Tested on: Salmonella paratyphi
Test: Antimicrobial activity against Salmonella enterica subsp. enterica serovar Paratyphi A after 18 to 20 hr by agar dilution method
Assay type: functional
Conditions: not given

| SMILES | MIC [µg/mL] |
| --- | --- |
| O=C(O)c1cn(C2CC2)c2cc(N3CCNCC3)c(F)cc2c1=O [CIPROFLOXACIN] | 0.04 (≈ 0.121 µM) |

Tested on: Vibrio parahaemolyticus
Test: Antimicrobial activity against Vibrio parahaemolyticus after 18 to 20 hr by agar dilution method
Assay type: functional
Conditions: not given

| SMILES | MIC [µg/mL] |
| --- | --- |
| O=C(O)c1cn(C2CC2)c2cc(N3CCNCC3)c(F)cc2c1=O [CIPROFLOXACIN] | 0.04 (≈ 0.121 µM) |

Tested on: Vibrio cholerae
Test: Antimicrobial activity against Vibrio cholerae 0139 after 18 to 20 hr by agar dilution method
Assay type: functional
Conditions: 139

| SMILES | MIC [µg/mL] |
| --- | --- |
| O=C(O)c1cn(C2CC2)c2cc(N3CCNCC3)c(F)cc2c1=O [CIPROFLOXACIN] | 0.04 (≈ 0.121 µM) |

Tested on: Vibrio fluvialis
Test: Antimicrobial activity against Vibrio fluvialis after 18 to 20 hr by agar dilution method
Assay type: functional
Conditions: not given

| SMILES | MIC [µg/mL] |
| --- | --- |
| O=C(O)c1cn(C2CC2)c2cc(N3CCNCC3)c(F)cc2c1=O [CIPROFLOXACIN] | 0.04 (≈ 0.121 µM) |

Tested on: Vibrio mimicus
Test: Antimicrobial activity against Vibrio mimicus after 18 to 20 hr by agar dilution method
Assay type: functional
Conditions: not given

| SMILES | MIC [µg/mL] |
| --- | --- |
| O=C(O)c1cn(C2CC2)c2cc(N3CCNCC3)c(F)cc2c1=O [CIPROFLOXACIN] | 0.04 (≈ 0.121 µM) |

Tested on: Pseudomonas aeruginosa
Test: Antimicrobial activity against Pseudomonas aeruginosa after 18 to 20 hr by agar dilution method
Assay type: functional
Conditions: not given

| SMILES | MIC [µg/mL] |
| --- | --- |
| O=C(O)c1cn(C2CC2)c2cc(N3CCNCC3)c(F)cc2c1=O [CIPROFLOXACIN] | 0.15 (≈ 0.453 µM) |

Tested on: Staphylococcus aureus
Test: Antimicrobial activity against Staphylococcus aureus after 18 to 20 hr by agar dilution method
Assay type: functional
Conditions: not given

| SMILES | MIC [µg/mL] |
| --- | --- |
| O=C(O)c1cn(C2CC2)c2cc(N3CCNCC3)c(F)cc2c1=O [CIPROFLOXACIN] | 0.04 (≈ 0.121 µM) |

Tested on: Morganella morganii
Test: Antimicrobial activity against Morganella morganii after 18 to 20 hr by agar dilution method
Assay type: functional
Conditions: not given

| SMILES | MIC [µg/mL] |
| --- | --- |
| O=C(O)c1cn(C2CC2)c2cc(N3CCNCC3)c(F)cc2c1=O [CIPROFLOXACIN] | 0.04 (≈ 0.121 µM) |

Tested on: Shigella boydii
Test: Antimicrobial activity against Shigella boydii after 18 to 20 hr by agar dilution method
Assay type: functional
Conditions: not given

| SMILES | MIC [µg/mL] |
| --- | --- |
| O=C(O)c1cn(C2CC2)c2cc(N3CCNCC3)c(F)cc2c1=O [CIPROFLOXACIN] | 0.04 (≈ 0.121 µM) |

Tested on: Plesiomonas
Test: Antimicrobial activity against Plesiomonas after 18 to 20 hr by agar dilution method
Assay type: functional
Conditions: not given

| SMILES | MIC [µg/mL] |
| --- | --- |
| O=C(O)c1cn(C2CC2)c2cc(N3CCNCC3)c(F)cc2c1=O [CIPROFLOXACIN] | 0.04 (≈ 0.121 µM) |

Tested on: Shigella sonnei
Test: Antimicrobial activity against Shigella sonnei after 18 to 20 hr by agar dilution method
Assay type: functional
Conditions: not given

| SMILES | MIC [µg/mL] |
| --- | --- |
| O=C(O)c1cn(C2CC2)c2cc(N3CCNCC3)c(F)cc2c1=O [CIPROFLOXACIN] | 0.04 (≈ 0.121 µM) |

Tested on: Klebsiella pneumoniae
Test: Antimicrobial activity against Klebsiella pneumoniae after 18 to 20 hr by agar dilution method
Assay type: functional
Conditions: not given

| SMILES | MIC [µg/mL] |
| --- | --- |
| O=C(O)c1cn(C2CC2)c2cc(N3CCNCC3)c(F)cc2c1=O [CIPROFLOXACIN] | 0.04 (≈ 0.121 µM) |

Tested on: Klebsiella pneumoniae
Test: Antimicrobial activity against Klebsiella pneumoniae subsp. ozaenae after 18 to 20 hr by agar dilution method
Assay type: functional
Conditions: not given

| SMILES | MIC [µg/mL] |
| --- | --- |
| O=C(O)c1cn(C2CC2)c2cc(N3CCNCC3)c(F)cc2c1=O [CIPROFLOXACIN] | 0.15 (≈ 0.453 µM) |
